“Also recorded” adds a separate entry of the source. Values belong to the compound of their own block, whether it stands above or below them.
Tests used:
ERK1/2 [1] = assay: ERK1/2 degradation by self-assembling CLIPTACs in A375 cells (immunoblot); assay type: cell-based; details: for ERK1/2 degradation, time course: Probe 1 10 μM then Tz-thalidomide 10 μM
Protocol: (§1) ERK1 and 2 levels were assessed by SDS-PAGE followed by Western Blot using a total ERK1/2 antibody. […] At low concentration (0.1 μM), the level of ERK1/2 was unchanged. […] Quantitation of the signal intensities allowed calculation of a DC50 of 490 nM.
(§2) HeLa cells (purchased from ATCC) were cultured in Eagle's Minimum Essential Medium (EMEM) supplemented with 10% FBS (Gibco, Life Technologies), 0.1% NEAA (Non-Essential Amino Acid, Gibco, Life Technologies) and 2 mM glutamine and were grown at 37° C. with 5% CO2. A375 and HCT116 cells (purchased from ATCC) were cultured in Dulbecco's Modified Eagle Medium (DMEM) supplemented with 10% FBS (Gibco, Life Technologies) and were grown at 37° C. with 5% CO2.
(§3) The medium was removed and the cells were washed with PBS (2×). A375 and HCT116 cells were lysed with TG Lysis buffer (150 μL per well) and kept on ice for 20 min. The cell lysates were centrifuged at 14000 rpm for 10 min at 4° C. and the protein concentration was determined by a Pierce™ BCA Protein Assay Kit. Samples were normalised, separated on 4-12% NuPAGE gels (Life Technologies) and transferred onto a nitrocellulose membrane (Novex). The membrane was blocked in blocking buffer (Odyssey) at r.t. for 1 hour and subjected to immunodetection using a total ERK1/2 primary antibody (p44/42 MAPK ERK1/2, Cell Signaling Technologies®, 1:1000) and anti-actin antibody (Abcam ab6276, 1:10000) in blocking buffer, at r.t. for 1 hour. After washing 3× with a Tris-buffered saline (TBS) with 0.1% Tween-20 solution (TBST), the membrane was incubated with fluorescently labelled secondary antibody (IRDye800CW Donkey Anti-Rabbit, 1:10 000 and IRDye680RD Donkey Anti-Mouse, 1:10 000) for 1 hour at r.t. in the dark. After washing 2× with a TBS solution, the membrane was imaged on an Li-Cor Biosciences Odyssey system in the 800 nm and 700 nm channels.
(§4) HeLa, A375 and HCT116 cells were seeded in 6-well plates at 1.5.10^5 cells/mL with 2 mL/well and allowed to attach overnight before being incubated with the appropriate compounds. TCO-ligand was added from a 1000× stock in DMSO-d6 (2 μL) to the plates. The cells were incubated at 37° C. in an atmosphere of 5% CO2 and air for 18 hours. Tz-Thalidomide was added from a 1000× stock in DMSO-d6 (2 μL) to the plates. The cells were incubated at 37° C. in an atmosphere of 5% CO2 and air for 18 hours.
(§5) When Carfilzomib was used, the compound was added from a 1000× stock in DMSO-d6 (2 μL) 4 hours before the addition of Tz-thalidomide. For control experiments, untagged ligands were added instead of the TCO-compound and methyl-Tz-thalidomide was used instead of Tz-thalidomide. For the time course experiments, the cells were incubated for the indicated time after the addition of Tz-thalidomide and consequently lysed.

ERK2 = molecular target: T1, ERK2 (Homo sapiens, UniProt P28482); assay: ERK2 degradation by self-assembling CLIPTACs in HCT116 cells (immunoblot); assay type: cell-based; details: high concentrations of Probe 1 18 h then Tz-thalidomide 10 μM 18 h
T1 construct: host or cells: HCT116
T1 sequence (P28482 whole entry): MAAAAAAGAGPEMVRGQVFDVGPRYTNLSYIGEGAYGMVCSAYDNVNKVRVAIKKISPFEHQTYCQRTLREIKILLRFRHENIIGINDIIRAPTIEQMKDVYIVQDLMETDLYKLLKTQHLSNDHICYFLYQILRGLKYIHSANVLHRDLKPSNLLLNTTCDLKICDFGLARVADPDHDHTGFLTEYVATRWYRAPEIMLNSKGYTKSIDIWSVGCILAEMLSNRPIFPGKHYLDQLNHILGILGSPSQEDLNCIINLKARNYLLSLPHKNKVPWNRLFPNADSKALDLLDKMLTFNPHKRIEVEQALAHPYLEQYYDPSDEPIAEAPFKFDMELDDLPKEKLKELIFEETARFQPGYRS
Protocol: as §1, §2
The medium was removed and the cells were washed with PBS (2×). A375 and HCT116 cells were lysed with TG Lysis buffer (150 μL per well) and kept on ice for 20 min. The cell lysates were centrifuged at 14000 rpm for 10 min at 4° C. and the protein concentration was determined by a Pierce™ BCA Protein Assay Kit. Samples were normalised, separated on 4-12% NuPAGE gels (Life Technologies) and transferred onto a nitrocellulose membrane (Novex). […]

A375 cells = assay: Activity in A375 cells (GI50); assay type: cell-based; details: Homo sapiens, A-375
BRD4 = molecular target: T2, BRD4 (Homo sapiens, UniProt O60885); assay: BRD4 degradation by self-assembling CLIPTACs in HeLa cells (immunoblot); assay type: cell-based; details: for BRD4 level, time course: JQ1-TCO 10 μM then Tz-thalidomide 10 μM
T2 construct: host or cells: HeLa
Protocol: BRD4 presence was assessed by SDS-PAGE followed by Western Blot using a specific BRD4 antibody.
as §2, §3
The same procedure was followed with HeLa cells using RIPA Lysis buffer (150 μL per well) and 5% non-fat milk in TBST as blocking buffer. Immunodetection was performed using an anti-BRD4 antibody (Bethyl Laboratories, A301:985A100, 1:1000) and anti-actin antibody (Abcam ab6276, 1:10000) in 5% non-fat milk in TBST, at 4° C. for 48 hours.
as §4, §5

BRD4-1 = molecular target: T3, BRD4-1 (Homo sapiens, UniProt O60885); assay: AlphaScreen histone peptide displacement assay, BRD4-1; assay type: binding
T3 construct: evaluated against both domains of BRD4, BRD4-1 and BRD4-2; Reaction Biology
From the text: (§6) Experiments performed on HeLa cells.
(§7) FIG. 4: Biological evaluation of Tz-thalidomide against both domains of BRD4, BRD4-1 and BRD4-2. Biological evaluation of Tz-thalidomide (n=2) by AlphaScreen (performed by Reaction Biology).

BRD4-2 = molecular target: T4, BRD4-2 (Homo sapiens, UniProt O60885); assay: AlphaScreen histone peptide displacement assay, BRD4-2; assay type: binding
T4 construct: evaluated against both domains of BRD4, BRD4-1 and BRD4-2; Reaction Biology
From the text: as §6, §7

ERK1/2 [2] = assay: ERK1/2 degradation by self-assembling CLIPTACs in A375 cells (immunoblot); assay type: cell-based
bromodomain family = assay: Thermal shift selectivity across the bromodomain family; assay type: binding; details: 10 μM, duplicate
Protocol: Finally, the selectivity profile of JQ1-TCO against the BET family was determined by thermal shift assay. […] (Liu et al. (2012) ChromoHub: a data hub for navigators of chromatin-mediated signalling. Bioinformatics 28: 2205-2206)
(b) Selectivity of JQ1-TCO (10 μM, duplicate, thermal shift) across the bromodomain family. (c) Immunoblot for BRD4 and Actin showing JQ1-TCO concentration dependent downregulation of BRD4 protein levels. HeLa cells were treated with JQ1-TCO for 18 hours followed by treatment with Tz-thalidomide (10 μM) for 18 hours. (d) Immunoblot for BRD4 and Actin showing Tz-thalidomide concentration dependent downregulation of BRD4 protein levels. HeLa cells were treated with JQ1-TCO (10 μM) for 18 hours followed by treatment with Tz-thalidomide for 18 hours. (e) Immunoblot for BRD4 and Actin showing time-dependent downregulation of BRD4 protein levels. HeLa cells were treated with JQ1-TCO (10 μM) for 18 hours followed by treatment with Tz-thalidomide (10 μM) for the indicated time. […] HeLa cells were treated with (−)JQ1-TCO for 18 hours followed by treatment with Tz-thalidomide for 18 hours. […] HeLa cells were treated with JQ1-TCO for 18 hours followed by treatment with Methyl-Tz-thalidomide for 18 hours. […] Experiments performed on HeLa cells.

[3] = 4-hour pre-treatment with Carfilzomib (1 μM) in the CLIPTAC experiment

DC50 (ERK1/2 [1]; Probe 1 18 h then Tz-thalidomide 10 μM 18 h): 490 nM
ERK2 degradation (ERK2): complete degradation
GI50 (A375 cells): 470 ± 140 nM
SMILES: C=CC(=O)Nc1ccccc1Nc1nc(Nc2ccnc(C#CCCNC(=O)OC3CC/C=C/CCC3)c2)ncc1Cl (stereo not drawn) [Probe 1, (4E)-Cyclooct-4-en-1-yl N-(4-{4-[(5-chloro-4-{[2-(prop-2-enamido)phenyl]amino}pyrimidin-2-yl)amino]pyridin-2-yl}but-3-yn-1-yl) carbamate]
ERK1/2 level (ERK1/2 [1]; Probe 1 0.1 μM 18 h then Tz-thalidomide 10 μM 18 h): unchanged
ERK1/2 degradation, time course (ERK1/2 [1]; after 8 hours): partially
ERK1/2 degradation, time course (ERK1/2 [1]; after 16 hours): complete
ERK1/2 degradation (ERK1/2 [1]; Probe 1 0.3 and 1 μM 18 h then Tz-thalidomide 10 μM 18 h): Partial degradation
ERK1/2 suppression (ERK1/2 [1]; Probe 1 at higher concentrations 18 h then Tz-thalidomide 10 μM 18 h): complete
ERK1/2 level (ERK1/2 [1]; compound alone): unmodified

BRD4 level (BRD4; JQ1-TCO 10 μM then methyl-Tz-thalidomide 10 μM): remained unchanged
BRD4 level (BRD4; JQ1-TCO 10 μM then methyl-Tz-thalidomide 10 μM, listed as Methyl-Tz-thalidomide): no BRD4 degradation
SMILES: Cc1nnc(-c2ccc(CNC(=O)CCCCCOc3cccc4c3C(=O)N(C3CCC(=O)N(C)C3=O)C4=O)cc2)nn1 (stereo not drawn) [methyl-Tz-thalidomide, N-{[4-(6-Methyl-1,2,4,5-tetrazin-3-yl)phenyl]methyl}-6-{[2-(1-methyl-2,6-dioxopiperidin-3-yl)-1,3-dioxo-2,3-dihydro-1H-isoindol-4-yl]oxy}hexanamide]
ERK1/2 degradation compared with Tz-thalidomide (ERK1/2 [1]; Probe 1 18 h then methyl-Tz-thalidomide 10 μM 18 h): far less effective; also recorded: reduced ERK1/2 degradation

BRD4 degradation (BRD4; JQ1-TCO 10 μM 18 h, then Tz-thalidomide 10 and 3 μM 18 h): completely degraded
BRD4 degradation (BRD4; JQ1-TCO 10 μM 18 h, then Tz-thalidomide at lower concentrations 18 h): partially
BRD4 level (BRD4; compound alone): unaffected
SMILES: Cc1nnc(-c2ccc(CNC(=O)CCCCCOc3cccc4c3C(=O)N(C3CCC(=O)NC3=O)C4=O)cc2)nn1 (stereo not drawn) [Tz-thalidomide, 6-{[2-(2,6-Dioxopiperidin-3-yl)-1,3-dioxo-2,3-dihydro-1H-isoindol-4-yl]oxy}-N-{[4-(6-methyl-1,2,4,5-tetrazin-3-yl)phenyl]methyl}hexanamide]
ERK1/2 level (ERK1/2 [1]; compound alone): unmodified
ERK1/2 degradation profile (ERK1/2 [2]; Probe 1 1 μM 4 hours then Tz-thalidomide 1 μM 18 hours): best degradation profile
ERK1/2 degradation (ERK1/2 [2]; Probe 1 4 h then Tz-thalidomide 0.1 and 0.3 μM): not observed

More lines, now with the values behind:

SMILES: Cc1sc2c(c1C)C(c1ccc(Cl)cc1)=N[C@H](CC(=O)NCCCNC(=O)OC1CC/C=C/CCC1)c1nnc(C)n1-2 (single isomer, unassigned; (-)) [(−)JQ1-TCO]
IC50 (BRD4-1): 13500 ± 210 nM
IC50 (BRD4-2): 24300 ± 920 nM
BRD4 degradation (BRD4; (−)JQ1-TCO at any concentration tested, then Tz-thalidomide 10 μM): no BRD4 degradation

SMILES: Cc1sc2c(c1C)C(c1ccc(Cl)cc1)=N[C@@H](CC(=O)NCCCNC(=O)OC1CC/C=C/CCC1)c1nnc(C)n1-2 (stereo partly drawn) [JQ1-TCO, (4E)-Cyclooct-4-en-1-yl N-(3-{2-[(9S)-7-(4-chlorophenyl)-4,5,13-trimethyl-3-thia-1,8,11,12-tetraazatricyclo[8.3.0.0^2,6]trideca-2(6),4,7,10,12-pentaen-9-yl]acetamido}propyl)carbamate]
IC50 (BRD4-1): 16 ± 3 nM
IC50 (BRD4-2): 63 ± 2 nM
Selectivity across the bromodomain family (thermal shift) (bromodomain family): bind selectively to subfamily II
BRD4 level, time course (BRD4; after 16 hours): clearly dropped
BRD4 level, time course (BRD4; after 24 hours): complete degradation
BRD4 level, time course (BRD4; up to 8 hours): unchanged
BRD4 degradation (BRD4; JQ1-TCO 1 and 0.3 μM 18 h, then Tz-thalidomide 10 μM 18 h): partial degradation
BRD4 degradation (BRD4; JQ1-TCO 10 and 3 μM 18 h, then Tz-thalidomide 10 μM 18 h): complete degradation
DC50 (BRD4; JQ1-TCO 18 h followed by fixed Tz-thalidomide (10 μM) 18 h, read-out: 50% degradation concentration (DC50) of BRD4): 420 nM
BRD4 level (BRD4; compound alone): unaffected

SMILES: CC(C)C[C@H](NC(=O)[C@H](CCc1ccccc1)NC(=O)CN1CCOCC1)C(=O)N[C@@H](Cc1ccccc1)C(=O)N[C@@H](CC(C)C)C(=O)[C@@]1(C)CO1 [Carfilzomib, reference compound]
BRD4 level (BRD4; [3]): remained the same as in untreated cells
ERK1/2 degradation (ERK1/2 [1]; [3]): rescued

Source: patent US11786600B2, “Cliptac composition” (OTSUKA PHARMACEUTICAL CO., LTD., priority 2016, dated 2023)
